Laboratory results taken from the supplement of paper PMC10307832.

Columns and labels:
Test in all cases: relative viability (nuclei count vs DMSO), 5 days (fraction); higher = more cells survive
[1] = compound: CCC1=CN=CN=C1N2CCN(CC2)CC3=NC4=C(N3)C=C(C=C4)C(F)(F)F + CC(=O)c1c(C)c2cnc(Nc3ccc(N4CCNCC4)cn3)nc2n(C2CCCC2)c1=O [Palbociclib] (partner 0.5 µM)
Outline: (§1)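 Nuclei were stained with Hoechst during a one-step fixation (final 0.05% Triton X-100, 1% formaldehyde, 1 ug/ml Hoechst) carried out 5 days after dosing, then counted on 4× images. The cells, lung cancer lines in 1536-well plates, had been dosed by pin tool the day after seeding with one drug alone or a fixed anchor-drug dose plus five library-drug doses (not always all listed) in √10 steps. Relative viability is the nuclei count in treated wells divided by that in vehicle wells, and each value is the median of duplicate plates.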

[2] = compound: CCC1=CN=CN=C1N2CCN(CC2)CC3=NC4=C(N3)C=C(C=C4)C(F)(F)F + N=C(N)NC(=N)NCCc1ccccc1 [Phenformin] (partner 250 µM)
Outline: as §1

[3] = compound: CCn1c(-c2nonc2N)nc2cnc(Oc3cccc(NC(=O)c4ccc(OCCN5CCOCC5)cc4)c3)cc21 + C[C@@H](Oc1cc(-c2cnn(C3CCNCC3)c2)cnc1N)c1c(Cl)ccc(F)c1Cl [Crizotinib] (partner 1 µM)
Outline: as §1

Mirin + Bortezomib = compound: N=C1NC(=O)/C(=C/c2ccc(O)cc2)S1 [Mirin] + CC(C)C[C@H](NC(=O)[C@H](Cc1ccccc1)NC(=O)c1cnccn1)B(O)O [Bortezomib] (partner 0.002 µM)
Outline: as §1

Row | Cell Line | relative viability ([1]; first compound 0.04 µM) | relative viability ([1]; first compound 0.1265 µM) | relative viability ([1]; first compound 0.4 µM) | relative viability ([1]; first compound 4 µM) | relative viability ([2]; first compound 0.04 µM) | relative viability ([2]; first compound 0.1265 µM) | relative viability ([2]; first compound 0.4 µM) | relative viability ([2]; first compound 1.265 µM) | relative viability ([2]; first compound 4 µM) | relative viability ([1]; first compound 1.265 µM) | relative viability ([3]; first compound 0.04 µM) | relative viability ([3]; first compound 0.1265 µM) | relative viability ([3]; first compound 1.265 µM) | relative viability ([3]; first compound 4 µM) | relative viability (Mirin + Bortezomib; first compound 0.25 µM) | relative viability (Mirin + Bortezomib; first compound 0.7906 µM) | relative viability (Mirin + Bortezomib; first compound 2.5 µM) | relative viability (Mirin + Bortezomib; first compound 7.906 µM) | relative viability (Mirin + Bortezomib; first compound 25 µM) | relative viability ([3]; first compound 0.4 µM)
1 | SW 900 | 0.463 | 0.497 | 0.412 | 0.556 | 0.571 | 0.555 | 0.648 | 0.551 | 0.832 | – | – | – | – | – | – | – | – | – | – | –
2 | NCI-H1944 | 0.399 | 0.358 | 0.298 | 0.303 | 0.239 | 0.188 | 0.187 | 0.162 | 0.227 | 0.309 | 1.15 | 1.11 | 1.07 | 1.12 | – | – | – | – | – | –
3 | NCI-H838 | 0.231 | 0.22 | 0.215 | 0.218 | 0.575 | 0.507 | 0.536 | 0.434 | 0.596 | 0.178 | 0.725 | 0.427 | 0.272 | 0.228 | 0.865 | 0.521 | 0.884 | 0.78 | 0.738 | 0.466
4 | NCI-H1650 | 0.325 | 0.311 | 0.348 | 0.39 | 0.484 | 0.519 | 0.392 | – | 0.416 | 0.223 | 1.12 | 0.957 | 0.761 | 0.711 | 0.196 | 0.2 | 0.216 | 0.208 | 0.191 | 0.897
5 | HCC-827 | 0.497 | 0.53 | 0.498 | 0.468 | 0.453 | 0.357 | 0.406 | – | 0.404 | 0.431 | 0.913 | 0.903 | 0.892 | 0.803 | 1.07 | 1.08 | 1.01 | 1.07 | 1.15 | 0.951
6 | HCC-366 | 0.319 | 0.328 | 0.321 | 0.383 | 0.539 | 0.64 | 0.57 | 0.432 | 0.536 | 0.34 | 0.738 | 0.537 | 0.0457 | 0.0363 | 1.06 | 0.986 | 1.09 | 0.981 | 0.977 | 0.575
7 | HARA | 0.281 | 0.314 | 0.283 | 0.295 | 0.464 | 0.368 | 0.305 | – | 0.472 | – | 1.15 | 1.08 | 0.335 | 0.241 | 1.09 | 1.11 | 1.17 | 1.1 | 1.17 | 1.1
8 | NCI-H441 | 0.205 | 0.204 | 0.204 | 0.257 | 0.699 | 0.874 | 0.718 | 0.868 | 0.833 | 0.17 | 1.02 | 0.659 | 0.479 | 0.431 | 0.387 | 0.645 | 0.449 | 0.314 | 0.409 | 0.606
9 | LXF-289 | 0.624 | 0.583 | 0.615 | 0.559 | 0.54 | 0.461 | 0.547 | 0.483 | 0.529 | 0.635 | 0.839 | 0.871 | 0.598 | 0.549 | 0.99 | 1.08 | 1.01 | 1.02 | 1.11 | 0.821
